From the NIST ThermoML archive (doi:10.1021/je100253m)
± gives the expanded uncertainty stated by the source.

Conditions: Ring tensiometer

SMILES | surface tension liquid-gas (293.15 K) | surface tension liquid-gas (303.15 K) | surface tension liquid-gas (313.15 K) | surface tension liquid-gas (323.15 K) | surface tension liquid-gas (333.15 K) | surface tension liquid-gas (343.15 K)
CCn1cc[n+](CC)c1.O=S(=O)([N-]S(=O)(=O)C(F)(F)F)C(F)(F)F [1,3-diethylimidazolium bis[(trifluoromethyl)sulfonyl]imide] | 35.76 ± 0.52 mN/m | 35.37 ± 0.52 mN/m | 34.94 ± 0.51 mN/m | 34.56 ± 0.51 mN/m | 34.15 ± 0.5 mN/m | 33.7 ± 0.5 mN/m
CCCC[N+]1(C)CCCC1.O=S(=O)([N-]S(=O)(=O)C(F)(F)F)C(F)(F)F | 34.93 ± 0.51 mN/m | 34.35 ± 0.51 mN/m | 33.65 ± 0.5 mN/m | 33.17 ± 0.49 mN/m | 32.61 ± 0.48 mN/m | 31.96 ± 0.48 mN/m
CCCCCCCCCCCCCC[P+](CCCCCC)(CCCCCC)CCCCCC.O=S(=O)([N-]S(=O)(=O)C(F)(F)F)C(F)(F)F | 30.75 ± 0.46 mN/m | 30.25 ± 0.46 mN/m | 29.52 ± 0.45 mN/m | 28.87 ± 0.44 mN/m | 28.21 ± 0.43 mN/m | 27.59 ± 0.42 mN/m
CCCCn1cc[n+](C)c1C.O=S(=O)([N-]S(=O)(=O)C(F)(F)F)C(F)(F)F | 37.4 ± 0.55 mN/m | 35.54 ± 0.52 mN/m | 33.83 ± 0.5 mN/m | 32.2 ± 0.48 mN/m | 30.49 ± 0.46 mN/m | 28.74 ± 0.44 mN/m
CCC[N+]1(C)CCCC1.O=S(=O)([N-]S(=O)(=O)C(F)(F)F)C(F)(F)F | 32.54 ± 0.48 mN/m | 31.95 ± 0.48 mN/m | 31.5 ± 0.47 mN/m | 31 ± 0.46 mN/m | 30.47 ± 0.46 mN/m | 29.97 ± 0.45 mN/m
CCC[n+]1cccc(C)c1.O=S(=O)([N-]S(=O)(=O)C(F)(F)F)C(F)(F)F | 36 ± 0.53 mN/m | 35.53 ± 0.52 mN/m | 35.1 ± 0.52 mN/m | 34.53 ± 0.51 mN/m | 34.05 ± 0.5 mN/m | 33.55 ± 0.5 mN/m
